For experiment [1], the system named is cartilage. The experiment is described as follows: Rabbit model of IL-1α-induced cartilage degradation (intra-articular injection, knee joint). The class given is in vivo. The settings on record: for Proteoglycan Loss (% Control): 24 hours (IL-1α alone 35.40 ± 3.12). As for the experimental part: Rabbits (3.0-3.2 kg) were obtained from Hazelton (Denver, Pa.); Xylazine from W. A. Butler (Columbus, Ohio); Rompun from Miles Inc, (Shawnee Mission, Kans.); Ketamine HCl from Aveco (Fort Dodge Labs, Fort Dodge, Iowa); Pentobarbital from Western Medical Supply (Acadia, Calif.); human recombinant Interleukin-1α (IL-1α) from Genzyme (Cambridge, Mass.); Cetus Pro/Pette (Perkin Elmer, Norwalk, Conn.); Biomek 1000 (Beckman, Fullerton, Calif.).
The assay was performed in two phases. The hind leg knee joints were first injected with IL-1α and compound for 24 hours. The proteoglycan content of cartilage was then quantified by measuring chondroitin sulfate present using the 1,9-Dimethylmethylene Blue Assay (DMB).
Each treatment was done in quadruplicate, necessitating twelve animals per study. Rabbits were anesthetized by injecting intramuscularly 0.9 mL Rompun combined with 1.8 mL Ketoset. Hind leg knee area was shaved and wiped with 70% EtOH and both drug and IL-1α were injected intra-articulary (27-gauge needle) in succession.
0.5 mL DMSO/Saline and 0.5 mL PBS/0.2% FCS.
0.5 mL DMSO/Saline containing 8 μg Compound 1 and 2500 U/0.5 mL IL-1α.
0.5 mL DMSO/Saline containing 8 μg Compound 1 and 0.5 mL PBS/0.2% FCS.
0.5 mL DMSO/Saline containing 24 μg Compound 1 and 0.5 mL IL-1α.
0.5 mL DMSO/Saline containing 24 μg Compound 1 and 0.5 mL PBS/0.2% FCS. […]
The ability of a compound to inhibit proteoglycan release from cartilage pieces was quantified by measuring chondroitin sulfate. […] This color change was measured using a Titertek Multiscan MCC 340 plate reader at 540 nm. […] The DMB assay was performed by adding 10 μL of samples to 290 μL DMB (16 mg dye/L of 0.1 M formate buffer, pH 3.5, containing 5 mL ethanol) and reading at 540 nm. Once the experiment was completed the total amount of proteoglycan remaining in the cartilage pieces was determined by digesting cartilage samples with papain and then performing 1,9 DMB assay on the digest. […] Digested material was diluted (1:5, 1:10, 1:20) and chondroitin sulfate values determined using the 1,9 DMB assay.

The subject of experiment [2] is 72 kDa gelatinase. Nature of the experiment: Gelatin zymography of bovine nasal cartilage conditioned media: expression of 72 kDa gelatinase. The settings on record: various concentrations, FIG. 1. The class given is cell-based. As to the method: To evaluate the effects of the compounds of the present invention on the expression of 72 kDa and 92 kDa gelatinases, samples obtained from the bovine nasal cartilage study (described above) were subjected to gelatin zymography.
Separating gels (8%) were made by combining 400 μL gelatin (25 mg/mL) with: 2.5 mL Tris (1.5 M); 100 μL SDS (10%); 2.6 mL acrylamide (30%); 10 μL TEMED; 4.6 mL dH2 O; 100 μL ammonium persulfate (10%). Stacking gels (4.5%) were formed by combining: 2.5 mL Tris (0.5 M); 100 μL SDS (10%); 1.5 mL acrylamide (30%); 10 μL TEMED; 5.8 mL dH2 O; 100 μL ammonium persulfate (10%).
Bovine nasal cartilage conditioned media was diluted (1:15) using sample buffer 1X (2% SDS, 15% glycerol, 0.01% bromophenol blue, 0.25M Trizma Base, pH 6.8). Thirty microliters of each of the diluted samples and molecular weight standards were subjected to electrophoresis at 4° C. under constant current conditions (20 mA of current/gel) using Tris/Glycine running buffer (0.5 M Trizma Base, pH 8.8 using glycine, 1% SDS) that was diluted 1:20 before use.
After completion of the electrophoretic procedure, the gel was first washed twice for 15 minutes in 2.5% Triton X-100. The gel was then rinsed with the gel incubation buffer (0.05 M Tris, pH 8.2, 0.005 M CaCl2, 0.5 μM ZnCl2) and incubated overnight in this buffer at 37° C. […]

Consider `S=c1[nH]nc(-c2ccccc2Nc2ccccc2)o1` [Compound 1, 5-(2-Phenylamino-phenyl)-3H-[1,3,4]oxadiazole-2-thione], for which the “Proteoglycan Loss (% Control)” value in experiment [1] (8 μg/jt with IL-1α) is 18.78 ± 10.98 % Control; in experiment [1] (24 μg/jt with IL-1α, * significantly different from IL-1α alone), 9.35 ± 7.26 % Control. In addition, the inhibiting cartilage degradation entry in experiment [1] (8 and 24 μg/joint, 24 hours) is given as “effective in inhibiting cartilage degradation in a dose-dependent manner”. The “effect on expression of 72 kDa gelatinase” value in experiment [2] is recorded as “no effect on expression of 72 kDa gelatinase”.

Source of the values: US6211209A, “Method of inhibiting connective tissue degradation” (Warner-Lambert Company, priority 1998, dated 2001).
